Measured values published in publication PMC4558166, “Trametinib modulates cancer multidrug resistance by targeting ABCB1 transporter” (Oncotarget, 2015).
pEC50: −log10 of the molar value.

Molecular target: ABCB1 (MDR1/P-glycoprotein) (Homo sapiens, UniProt P08183)
Assay: Vi-sensitive ATPase stimulation in High Five insect cell membrane vesicles; also rhodamine […]/doxorubicin accumulation in ABCB1-overexpressing cells
Assay type: biochemical

Sequence of ABCB1 (MDR1/P-glycoprotein) (P08183 whole entry): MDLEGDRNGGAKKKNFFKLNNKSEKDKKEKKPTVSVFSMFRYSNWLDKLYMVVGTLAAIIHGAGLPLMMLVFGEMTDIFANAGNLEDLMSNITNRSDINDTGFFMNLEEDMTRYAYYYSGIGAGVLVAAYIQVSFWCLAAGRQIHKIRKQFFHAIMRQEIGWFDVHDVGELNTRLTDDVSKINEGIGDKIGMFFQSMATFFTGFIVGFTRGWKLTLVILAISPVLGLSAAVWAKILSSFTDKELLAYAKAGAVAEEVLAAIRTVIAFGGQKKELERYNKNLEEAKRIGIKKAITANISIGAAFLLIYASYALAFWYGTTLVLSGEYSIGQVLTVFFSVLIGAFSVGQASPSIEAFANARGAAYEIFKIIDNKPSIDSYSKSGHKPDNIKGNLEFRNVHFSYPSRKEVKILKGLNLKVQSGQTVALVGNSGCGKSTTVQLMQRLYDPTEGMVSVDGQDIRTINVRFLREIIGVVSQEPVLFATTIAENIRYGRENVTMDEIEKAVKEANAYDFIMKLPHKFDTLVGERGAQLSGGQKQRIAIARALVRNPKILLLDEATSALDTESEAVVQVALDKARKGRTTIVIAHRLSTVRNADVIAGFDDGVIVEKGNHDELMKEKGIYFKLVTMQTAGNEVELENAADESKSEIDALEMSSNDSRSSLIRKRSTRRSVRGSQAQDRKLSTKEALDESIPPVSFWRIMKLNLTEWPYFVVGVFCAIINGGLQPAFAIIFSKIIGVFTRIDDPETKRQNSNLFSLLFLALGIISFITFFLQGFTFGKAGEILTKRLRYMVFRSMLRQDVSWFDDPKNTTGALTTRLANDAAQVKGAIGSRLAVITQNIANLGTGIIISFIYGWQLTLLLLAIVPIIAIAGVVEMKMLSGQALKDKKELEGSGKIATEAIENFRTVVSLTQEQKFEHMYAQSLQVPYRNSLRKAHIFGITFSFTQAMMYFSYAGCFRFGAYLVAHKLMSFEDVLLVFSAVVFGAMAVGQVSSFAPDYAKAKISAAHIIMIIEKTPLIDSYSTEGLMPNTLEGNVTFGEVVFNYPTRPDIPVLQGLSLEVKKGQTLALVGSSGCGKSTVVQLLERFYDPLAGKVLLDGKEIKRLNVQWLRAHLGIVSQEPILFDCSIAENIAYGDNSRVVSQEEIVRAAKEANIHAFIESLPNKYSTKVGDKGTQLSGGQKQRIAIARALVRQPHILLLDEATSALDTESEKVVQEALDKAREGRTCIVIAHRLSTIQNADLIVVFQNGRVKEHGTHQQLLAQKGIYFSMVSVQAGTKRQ

**Q.** With `CC(=O)Nc1cccc(-n2c(=O)n(C3CC3)c(=O)c3c(Nc4ccc(I)cc4F)n(C)c(=O)c(C)c32)c1` [Trametinib] as the molecule, how does the pEC50 read?
**A.** 5.99
